Data: paper PMC5747364 (Science (New York, N.Y.), 2017)

Target: T1, SAMTOR (Homo sapiens, UniProt Q1RMZ1)
T1 sequence (Q1RMZ1 1-405): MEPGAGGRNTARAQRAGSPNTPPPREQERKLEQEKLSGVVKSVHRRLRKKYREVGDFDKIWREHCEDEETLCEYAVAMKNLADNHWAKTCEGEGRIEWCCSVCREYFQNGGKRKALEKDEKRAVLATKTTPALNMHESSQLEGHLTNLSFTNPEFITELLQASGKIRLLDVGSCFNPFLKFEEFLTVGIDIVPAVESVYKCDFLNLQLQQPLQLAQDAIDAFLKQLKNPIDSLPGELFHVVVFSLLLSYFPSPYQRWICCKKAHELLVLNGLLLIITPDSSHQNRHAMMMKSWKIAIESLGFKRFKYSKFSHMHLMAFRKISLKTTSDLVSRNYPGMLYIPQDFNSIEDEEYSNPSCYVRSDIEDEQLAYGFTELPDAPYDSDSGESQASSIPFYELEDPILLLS
Assay: competition binding against [3H]SAM on purified FLAG-SAMTOR
Conditions: competitive with [3H]SAM

Nc1ncnc2c1ncn2[C@@H]1O[C@H](CSCC[C@H](N)C(=O)O)[C@@H](O)[C@H]1O [SAH]
Ki: SAMTOR can also bind S-adenosylhomocysteine (SAH), the demethylated form of SAM
